Earlier results in paper PMC9851200, “Multiparameter phenotypic screening for endogenous TFEB and TFE3 translocation identifies novel chemical series modulating lysosome function” (Autophagy, 2022).

Key:
Set-up in all cases: method as in original PKIS2 published data
[1] = target: T1, kinases (KINOMEscan panel) (Homo sapiens, UniProt O15075); conditions: Published KINOMEscan; ref original PKIS2 published data; cited from earlier work
T1 sequence (O15075 1-740): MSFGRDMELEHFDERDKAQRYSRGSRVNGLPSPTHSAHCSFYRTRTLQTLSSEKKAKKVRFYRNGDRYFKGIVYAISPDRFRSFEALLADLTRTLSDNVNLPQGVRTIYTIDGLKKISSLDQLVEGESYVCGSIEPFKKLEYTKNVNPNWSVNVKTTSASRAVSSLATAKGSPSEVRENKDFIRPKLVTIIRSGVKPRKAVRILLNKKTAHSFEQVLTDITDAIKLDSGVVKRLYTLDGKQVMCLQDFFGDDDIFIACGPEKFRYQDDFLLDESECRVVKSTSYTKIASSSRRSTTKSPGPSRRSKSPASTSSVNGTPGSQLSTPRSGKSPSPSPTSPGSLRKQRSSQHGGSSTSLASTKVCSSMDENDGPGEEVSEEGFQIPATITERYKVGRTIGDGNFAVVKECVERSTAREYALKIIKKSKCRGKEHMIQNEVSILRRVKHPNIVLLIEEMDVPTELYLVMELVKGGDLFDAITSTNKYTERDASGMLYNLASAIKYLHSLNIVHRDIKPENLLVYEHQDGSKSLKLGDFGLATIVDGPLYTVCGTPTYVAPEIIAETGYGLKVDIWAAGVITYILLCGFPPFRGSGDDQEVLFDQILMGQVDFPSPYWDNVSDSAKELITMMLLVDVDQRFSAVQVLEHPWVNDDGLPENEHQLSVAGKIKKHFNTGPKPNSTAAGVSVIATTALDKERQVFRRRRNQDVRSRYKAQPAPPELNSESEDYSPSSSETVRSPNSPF

[2] = target: kinases (KINOMEscan panel) (Homo sapiens, UniProt O94921); conditions: Published KINOMEscan; ref original PKIS2 published data; cited from earlier work
Chain of kinases (KINOMEscan panel) (Homo sapiens, UniProt O94921) (O94921 whole entry): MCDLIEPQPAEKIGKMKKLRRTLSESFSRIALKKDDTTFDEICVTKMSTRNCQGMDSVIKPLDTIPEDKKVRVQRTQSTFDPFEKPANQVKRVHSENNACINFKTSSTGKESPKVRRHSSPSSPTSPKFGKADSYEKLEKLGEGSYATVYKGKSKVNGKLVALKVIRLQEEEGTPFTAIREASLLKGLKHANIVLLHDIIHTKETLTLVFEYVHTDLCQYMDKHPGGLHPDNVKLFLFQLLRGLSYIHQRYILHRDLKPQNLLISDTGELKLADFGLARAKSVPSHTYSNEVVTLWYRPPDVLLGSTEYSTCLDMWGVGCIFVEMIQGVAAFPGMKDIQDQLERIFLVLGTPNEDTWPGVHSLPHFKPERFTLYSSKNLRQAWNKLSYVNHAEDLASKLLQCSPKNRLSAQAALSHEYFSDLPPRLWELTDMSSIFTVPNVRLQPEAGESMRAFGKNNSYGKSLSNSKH

[3] = target: kinases (KINOMEscan panel) (Homo sapiens, UniProt P08922); conditions: kinase ROS1; Published KINOMEscan; ref original PKIS2 published data; cited from earlier work
Chain of kinases (KINOMEscan panel) (Homo sapiens, UniProt P08922) (P08922 28-2347): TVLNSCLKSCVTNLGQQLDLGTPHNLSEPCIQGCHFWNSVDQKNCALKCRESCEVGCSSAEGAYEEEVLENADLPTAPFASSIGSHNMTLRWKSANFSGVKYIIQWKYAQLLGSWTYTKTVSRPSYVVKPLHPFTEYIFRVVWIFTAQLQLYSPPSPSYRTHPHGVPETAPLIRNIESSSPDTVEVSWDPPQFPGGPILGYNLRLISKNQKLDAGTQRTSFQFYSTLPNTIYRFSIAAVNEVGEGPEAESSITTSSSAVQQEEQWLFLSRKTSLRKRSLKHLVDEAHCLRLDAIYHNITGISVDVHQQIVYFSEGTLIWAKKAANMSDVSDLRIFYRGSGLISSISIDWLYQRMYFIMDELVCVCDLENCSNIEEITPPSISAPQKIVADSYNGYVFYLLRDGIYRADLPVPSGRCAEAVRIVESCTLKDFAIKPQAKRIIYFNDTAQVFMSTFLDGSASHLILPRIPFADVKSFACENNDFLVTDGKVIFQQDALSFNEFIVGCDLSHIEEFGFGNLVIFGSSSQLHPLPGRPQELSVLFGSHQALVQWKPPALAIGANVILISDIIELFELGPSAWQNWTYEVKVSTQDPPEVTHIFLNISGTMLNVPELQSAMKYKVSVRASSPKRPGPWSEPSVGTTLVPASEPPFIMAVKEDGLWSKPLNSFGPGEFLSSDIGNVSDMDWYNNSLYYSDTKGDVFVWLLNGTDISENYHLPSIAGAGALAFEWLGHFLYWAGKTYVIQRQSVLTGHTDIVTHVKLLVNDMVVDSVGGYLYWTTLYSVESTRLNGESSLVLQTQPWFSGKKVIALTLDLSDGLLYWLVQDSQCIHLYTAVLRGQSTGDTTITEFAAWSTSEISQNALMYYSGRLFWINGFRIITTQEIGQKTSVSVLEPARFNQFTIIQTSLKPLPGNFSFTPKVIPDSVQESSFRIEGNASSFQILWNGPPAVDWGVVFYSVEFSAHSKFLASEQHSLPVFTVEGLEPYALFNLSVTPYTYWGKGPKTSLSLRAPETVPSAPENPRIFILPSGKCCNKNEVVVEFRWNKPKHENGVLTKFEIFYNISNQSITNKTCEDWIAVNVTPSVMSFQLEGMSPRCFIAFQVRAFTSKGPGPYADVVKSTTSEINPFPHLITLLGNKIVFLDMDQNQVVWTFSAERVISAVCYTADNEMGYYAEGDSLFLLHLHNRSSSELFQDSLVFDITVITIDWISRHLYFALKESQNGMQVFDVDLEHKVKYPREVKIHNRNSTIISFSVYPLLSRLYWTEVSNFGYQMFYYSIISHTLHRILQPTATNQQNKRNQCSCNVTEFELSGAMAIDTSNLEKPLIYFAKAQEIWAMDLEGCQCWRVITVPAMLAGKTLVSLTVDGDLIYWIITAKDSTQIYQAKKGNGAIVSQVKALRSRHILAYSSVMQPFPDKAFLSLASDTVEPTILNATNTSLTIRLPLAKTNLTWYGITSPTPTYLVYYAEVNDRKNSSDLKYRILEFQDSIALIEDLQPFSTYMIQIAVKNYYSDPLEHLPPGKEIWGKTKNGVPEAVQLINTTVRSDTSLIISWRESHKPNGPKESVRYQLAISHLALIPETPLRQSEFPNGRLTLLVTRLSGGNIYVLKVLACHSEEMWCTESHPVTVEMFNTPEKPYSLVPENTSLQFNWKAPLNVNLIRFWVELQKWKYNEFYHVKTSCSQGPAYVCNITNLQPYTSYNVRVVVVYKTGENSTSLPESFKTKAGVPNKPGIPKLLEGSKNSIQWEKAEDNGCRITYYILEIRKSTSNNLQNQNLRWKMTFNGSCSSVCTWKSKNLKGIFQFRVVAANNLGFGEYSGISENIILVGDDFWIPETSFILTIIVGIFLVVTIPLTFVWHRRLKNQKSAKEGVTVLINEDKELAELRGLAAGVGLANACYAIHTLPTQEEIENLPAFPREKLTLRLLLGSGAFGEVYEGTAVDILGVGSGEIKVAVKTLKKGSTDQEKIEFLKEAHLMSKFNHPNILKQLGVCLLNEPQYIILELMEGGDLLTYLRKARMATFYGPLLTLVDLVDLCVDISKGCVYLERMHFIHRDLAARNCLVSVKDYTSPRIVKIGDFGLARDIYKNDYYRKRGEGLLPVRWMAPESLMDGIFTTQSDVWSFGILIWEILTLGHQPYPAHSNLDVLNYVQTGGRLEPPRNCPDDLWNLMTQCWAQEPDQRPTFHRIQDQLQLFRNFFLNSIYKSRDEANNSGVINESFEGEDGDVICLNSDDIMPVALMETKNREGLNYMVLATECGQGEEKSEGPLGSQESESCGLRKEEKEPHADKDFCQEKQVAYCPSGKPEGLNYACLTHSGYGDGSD

[4] = target: kinases (KINOMEscan panel) (Homo sapiens, UniProt P14616); conditions: INSRR; Published KINOMEscan; ref original PKIS2 published data; cited from earlier work
Chain of kinases (KINOMEscan panel) (Homo sapiens, UniProt P14616) (P14616 27-1297): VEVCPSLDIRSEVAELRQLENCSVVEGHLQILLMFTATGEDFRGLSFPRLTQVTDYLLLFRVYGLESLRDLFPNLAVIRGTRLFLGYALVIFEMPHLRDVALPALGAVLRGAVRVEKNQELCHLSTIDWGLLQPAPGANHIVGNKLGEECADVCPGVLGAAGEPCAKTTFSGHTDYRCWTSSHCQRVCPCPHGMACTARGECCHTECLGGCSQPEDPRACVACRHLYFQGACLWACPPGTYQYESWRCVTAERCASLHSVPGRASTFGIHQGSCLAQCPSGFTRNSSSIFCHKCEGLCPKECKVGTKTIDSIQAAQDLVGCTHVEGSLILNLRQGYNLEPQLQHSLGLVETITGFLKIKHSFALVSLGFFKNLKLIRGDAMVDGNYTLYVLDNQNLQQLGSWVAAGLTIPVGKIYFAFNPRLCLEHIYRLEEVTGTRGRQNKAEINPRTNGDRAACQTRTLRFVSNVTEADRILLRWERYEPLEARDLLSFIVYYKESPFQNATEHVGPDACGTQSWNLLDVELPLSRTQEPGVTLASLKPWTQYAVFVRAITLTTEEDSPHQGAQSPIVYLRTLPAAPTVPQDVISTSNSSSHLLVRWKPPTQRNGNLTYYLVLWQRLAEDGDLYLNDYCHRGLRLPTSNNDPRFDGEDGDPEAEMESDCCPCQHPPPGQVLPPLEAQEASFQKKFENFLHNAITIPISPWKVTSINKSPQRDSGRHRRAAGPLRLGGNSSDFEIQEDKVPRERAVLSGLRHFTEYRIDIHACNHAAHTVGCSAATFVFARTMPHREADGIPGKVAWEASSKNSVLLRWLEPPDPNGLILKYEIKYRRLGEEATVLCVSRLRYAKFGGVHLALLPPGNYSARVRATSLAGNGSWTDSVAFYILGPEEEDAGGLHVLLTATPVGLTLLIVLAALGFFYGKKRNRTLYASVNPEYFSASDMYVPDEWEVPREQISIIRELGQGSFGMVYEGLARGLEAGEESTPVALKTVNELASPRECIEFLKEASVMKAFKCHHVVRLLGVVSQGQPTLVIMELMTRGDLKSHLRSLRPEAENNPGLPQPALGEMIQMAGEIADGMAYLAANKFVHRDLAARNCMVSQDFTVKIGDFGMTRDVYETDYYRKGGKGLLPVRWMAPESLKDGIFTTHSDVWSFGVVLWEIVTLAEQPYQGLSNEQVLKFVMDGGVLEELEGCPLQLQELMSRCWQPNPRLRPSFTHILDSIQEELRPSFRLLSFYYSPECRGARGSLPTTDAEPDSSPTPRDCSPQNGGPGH

[5] = target: kinases (KINOMEscan panel) (Homo sapiens, UniProt P21127); conditions: CDK11B; Published KINOMEscan; ref original PKIS2 published data; cited from earlier work
[6] = target: kinases (KINOMEscan panel) (Homo sapiens, UniProt P42685); conditions: kinase FRK; Published KINOMEscan; ref original PKIS2 published data; cited from earlier work
Chain of kinases (KINOMEscan panel) (Homo sapiens, UniProt P42685) (P42685 whole entry): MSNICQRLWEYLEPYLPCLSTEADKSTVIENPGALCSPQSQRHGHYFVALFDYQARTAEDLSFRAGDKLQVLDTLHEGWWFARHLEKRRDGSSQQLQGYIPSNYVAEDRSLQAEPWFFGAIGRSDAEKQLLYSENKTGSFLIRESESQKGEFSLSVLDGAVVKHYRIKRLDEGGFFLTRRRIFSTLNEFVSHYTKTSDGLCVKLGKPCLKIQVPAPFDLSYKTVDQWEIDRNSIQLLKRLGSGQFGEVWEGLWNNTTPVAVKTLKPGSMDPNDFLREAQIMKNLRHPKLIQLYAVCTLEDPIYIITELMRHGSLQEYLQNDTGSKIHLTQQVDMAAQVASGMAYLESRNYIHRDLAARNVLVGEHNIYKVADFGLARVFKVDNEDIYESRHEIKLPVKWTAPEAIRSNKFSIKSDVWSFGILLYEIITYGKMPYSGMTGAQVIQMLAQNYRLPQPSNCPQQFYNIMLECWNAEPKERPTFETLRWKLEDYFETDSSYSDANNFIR

[7] = target: T2, kinases (KINOMEscan panel) (Homo sapiens, UniProt Q8N752); conditions: CSNK1A1L; Published KINOMEscan; ref original PKIS2 published data; cited from earlier work
T2 sequence (Q8N752 1-337): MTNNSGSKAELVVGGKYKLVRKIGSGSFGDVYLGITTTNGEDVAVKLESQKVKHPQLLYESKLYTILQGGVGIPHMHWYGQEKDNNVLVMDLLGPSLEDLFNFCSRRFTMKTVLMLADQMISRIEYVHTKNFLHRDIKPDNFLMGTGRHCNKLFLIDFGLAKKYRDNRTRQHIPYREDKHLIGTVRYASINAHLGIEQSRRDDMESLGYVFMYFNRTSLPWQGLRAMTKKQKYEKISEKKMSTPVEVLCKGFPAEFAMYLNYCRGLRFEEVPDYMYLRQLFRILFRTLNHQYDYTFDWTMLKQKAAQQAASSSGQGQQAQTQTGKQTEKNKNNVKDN

[8] = target: T3, kinases (KINOMEscan panel) (Homo sapiens, UniProt Q9UL54); conditions: kinase TAOK2; Published KINOMEscan; ref original PKIS2 published data; cited from earlier work
T3 sequence (Q9UL54 1-1235): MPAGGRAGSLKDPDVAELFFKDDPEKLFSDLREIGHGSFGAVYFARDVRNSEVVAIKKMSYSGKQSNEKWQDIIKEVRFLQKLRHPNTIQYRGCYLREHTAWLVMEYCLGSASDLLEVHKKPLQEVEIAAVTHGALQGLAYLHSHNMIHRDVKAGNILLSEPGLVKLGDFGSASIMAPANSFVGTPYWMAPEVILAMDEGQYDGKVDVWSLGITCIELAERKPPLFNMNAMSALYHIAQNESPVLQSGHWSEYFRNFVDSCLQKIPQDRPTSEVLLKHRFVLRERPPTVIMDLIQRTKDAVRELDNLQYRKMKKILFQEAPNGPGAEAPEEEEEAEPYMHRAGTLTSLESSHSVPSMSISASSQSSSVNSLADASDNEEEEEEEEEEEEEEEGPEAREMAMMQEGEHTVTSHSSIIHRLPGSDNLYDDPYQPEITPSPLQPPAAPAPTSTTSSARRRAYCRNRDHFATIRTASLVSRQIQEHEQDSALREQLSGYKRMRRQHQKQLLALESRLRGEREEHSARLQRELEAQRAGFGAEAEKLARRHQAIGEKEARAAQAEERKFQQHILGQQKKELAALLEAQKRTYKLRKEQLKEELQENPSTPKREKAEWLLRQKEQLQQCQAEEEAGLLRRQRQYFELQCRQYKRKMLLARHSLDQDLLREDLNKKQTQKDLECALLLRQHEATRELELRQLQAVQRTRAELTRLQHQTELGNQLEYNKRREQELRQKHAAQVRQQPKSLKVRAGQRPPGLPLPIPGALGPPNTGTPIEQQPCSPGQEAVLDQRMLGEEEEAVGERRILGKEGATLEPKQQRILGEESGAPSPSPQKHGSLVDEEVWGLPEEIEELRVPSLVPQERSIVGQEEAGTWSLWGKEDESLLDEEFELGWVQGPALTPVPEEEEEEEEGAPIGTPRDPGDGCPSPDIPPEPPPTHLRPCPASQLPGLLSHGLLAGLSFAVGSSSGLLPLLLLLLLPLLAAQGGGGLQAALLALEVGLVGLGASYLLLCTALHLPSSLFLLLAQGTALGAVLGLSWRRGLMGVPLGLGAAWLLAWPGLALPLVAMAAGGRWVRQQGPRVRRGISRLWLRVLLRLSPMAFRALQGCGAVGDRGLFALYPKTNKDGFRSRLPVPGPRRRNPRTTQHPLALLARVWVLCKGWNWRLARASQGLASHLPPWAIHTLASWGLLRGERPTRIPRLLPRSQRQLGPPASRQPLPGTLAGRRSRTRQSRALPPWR

Cc1cccc(-c2nc(Nc3ccncc3)c3ccccc3n2)n1 [NK215]
KINOMEscan DCLK1 [1]: 14
KINOMEscan CDK14 [2]: 0
KINOMEscan ROS1 [3]: 0
KINOMEscan INSRR [4]: 0
KINOMEscan CDK11B [5]: 0
KINOMEscan FRK [6]: 15
KINOMEscan CSNK1A1L [7]: 10
KINOMEscan TAOK2 [8]: 17
